{
  "source": "patent US6525001B1",
  "about": "“Substituted pyrimidine and pyridine herbicides” (Mid-American Commercialization Corporation, priority 1997, dated 2003)",
  "type_in_all_cases": "in vivo",
  "key": {"[1]": {"system": "sugarcane (Saccharum officinarum)", "experiment": "Test E pre-/postemergence/post directed", "set-up": "key: 0 is no injury; 100 is complete control", "outline": "(§1)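 Three application modes in greenhouse pots: preemergence soil spray, postemergence foliar spray at two to four leaves, and post-directed spray to soil and plant base. Ratings of 0–100 injury, assigned visually against untreated controls 13 to 21 days later.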"}, "kochia (Kochia scoparia)": {"system": "kochia (Kochia scoparia)", "experiment": "Test E pre-/postemergence/post directed", "set-up": "key: 0 is no effect; 100 is complete control", "details": "PREEMERGENCE", "outline": "as §1"}, "[2]": {"system": "Russian thistle (Salsola kali)", "experiment": "Test D", "details": "POSTEMERGENCE", "protocol": "(§2) Compounds evaluated in this test were formulated in a non-phytotoxic solvent mixture which included a surfactant and applied to plants that were in the 1- to 4-leaf stage (postemergence application). A mixture of sandy loam soil and greenhouse potting mix in a 60:40 ratio was used for the postemergence test.\n(§3) Plantings of these crops and weed species were adjusted to produce plants of appropriate size for the postemergence test. All plant species were grown using normal greenhouse practices. Crop and weed species include alfalfa (Medicago sativa), annual bluegrass (Poa annua), blackgrass (Alopecurus myosuroides), black nightshade (Solanum nigra), chickweed (Stellaria media), common poppy (Papaver rhoeas), deadnettle (Lamium amplexicaule), downy brome (Bromus tectorum), field violet (Viola arvensis), galium 2 (Galium aparine), green foxtail (Setaria viridis), Italian ryegrass (Lolium multiflorum), jointed goatgrass (Aegilops cylindrica), kochia (Kochia scoparia), lambsquarters (Chenopodium album), lentil (Lens culinaris), littleseed canarygrass (Phalaris minor), pea (Pisum sativum), potato (Solanum tuberosum), rape (Brassica napus), redroot pigweed (Amaranthus retroflexus), Russian thistle (Salsola kali), scentless chamomile (Matricaria inodora), sorghum (Sorghum vulgare), spring barley (Hordeum vulgare), sugar beet (Beta vulgaris), sunflower (Helianthus annuus), ivyleaf speedwell (Veronica hederaefolia), spring wheat (Triticum aestivum), winter wheat (Triticum aestivum), wild buckwheat (Polygonum convolvulus), wild mustard (Sinapis arvensis), wild oat (Avena fatua), windgrass (Apera spica-venti) and winter barley (Hordeum vulgare).\n(§4) Treated plants and untreated controls were maintained in a greenhouse for approximately 21 to 28 days, after which all treated plants were compared to untreated controls and visually evaluated. Plant response ratings, summarized in Table D, are based upon a 0 to 100 scale where 0 is no effect and 100 is complete control. A dash response (−) means no test result."}, "[3]": {"system": "field violet (Viola arvensis)", "experiment": "Test D", "set-up": "key: 0 is no effect; 100 is complete control", "details": "POSTEMERGENCE", "protocol": "as §2, §3, §4"}, "[4]": {"system": "Italian ryegrass (Lolium multiflorum)", "experiment": "Test D", "set-up": "key: 0 is no effect; 10 is complete control", "details": "PREEMERGENCE, Rate 62 g/ha"}, "[5]": {"system": "downy brome (Bromus tectorum)", "experiment": "Test D", "set-up": "key: 0 is no effect; 100 is complete control", "details": "PREEMERGENCE"}, "[6]": {"system": "bermudagrass (Cynodon dactylon)", "experiment": "Test E pre-/postemergence/post directed", "set-up": "key: 0 is no injury; 100 is complete control", "details": "POSTEMERGENCE", "outline": "as §1"}, "[7]": {"system": "itchgrass (Rottboellia exaltata)", "experiment": "Test E pre-/postemergence/post directed", "set-up": "key: 0 is no injury; 100 is complete control", "details": "PREEMERGENCE", "outline": "as §1"}, "[8]": {"system": "johnson grass (Sorghum halepense)", "experiment": "Test E pre-/postemergence/post directed", "set-up": "key: 0 is no injury; 100 is complete control", "details": "PREEMERGENCE", "outline": "as §1"}, "[9]": {"system": "large crabgrass (Digitaria sanguinalis)", "experiment": "Test E pre-/postemergence/post directed", "set-up": "key: 0 is no injury; 100 is complete control", "details": "PREEMERGENCE, Rate 32 g/ha", "outline": "as §1"}, "[10]": {"system": "surinam grass (Brachiaria decumbens)", "experiment": "Test E pre-/postemergence/post directed", "set-up": "key: 0 is no injury; 100 is complete control", "details": "PREEMERGENCE", "outline": "as §1"}, "[11]": {"system": "wild buckwheat (Polygonum convolvulus)", "experiment": "Test D", "set-up": "key: 0 is no effect; 100 is complete control", "details": "PREEMERGENCE, Rate 125 g/ha"}, "[12]": {"system": "Spanishneedles (Bidens bipinnata)", "experiment": "Test E pre-/postemergence/post directed", "set-up": "key: 0 is no injury; 100 is complete control", "details": "PREEMERGENCE", "outline": "as §1"}, "[13]": {"system": "Italian ryegrass (Lolium multiflorum)", "experiment": "Test D", "set-up": "key: 0 is no effect; 100 is complete control", "details": "PREEMERGENCE"}, "[14]": {"system": "itchgrass (Rottboellia exaltata)", "experiment": "Test E pre-/postemergence/post directed", "set-up": "key: 0 is no effect; 100 is complete control", "details": "PREEMERGENCE", "outline": "as §1"}},
  "data": [
    {"smiles": "Cc1cnc(-c2ccc(C(F)(F)F)cc2)nc1Cc1cccc(OC(F)(F)F)c1", "note": "[Compound 15]", "values": [
      {"measurement": "Plant response rating, Sugarcane", "setting": "[1]; PREEMERGENCE, Rate 32 g/ha", "value": 0},
      {"measurement": "Plant response rating, Sugarcane", "setting": "[1]; PREEMERGENCE, Rate 64 g/ha", "value": 0},
      {"measurement": "Plant response rating, Sugarcane", "setting": "[1]; PREEMERGENCE, Rate 125 g/ha", "value": 10},
      {"measurement": "Plant response rating, Sugarcane", "setting": "[1]; PREEMERGENCE, Rate 250 g/ha", "value": 10},
      {"measurement": "Plant response rating, Kochia", "setting": "kochia (Kochia scoparia); Rate 32 g/ha", "value": 60},
      {"measurement": "Plant response rating, Kochia", "setting": "kochia (Kochia scoparia); Rate 64 g/ha", "value": 75},
      {"measurement": "Plant response rating, Kochia", "setting": "kochia (Kochia scoparia); Rate 125 g/ha", "value": 95},
      {"measurement": "Plant response rating, Kochia", "setting": "kochia (Kochia scoparia); Rate 250 g/ha", "value": 100}
    ]},
    {"smiles": "CCc1cnc(-c2ccc(C(F)(F)F)cc2)nc1Cc1cccc(C(F)(F)F)c1", "note": "[Compound 22]", "values": [
      {"measurement": "Plant response rating, Russian thistle", "setting": "[2]; Rate 62 g/ha", "value": 80},
      {"measurement": "Plant response rating, Russian thistle", "setting": "[2]; Rate 125 g/ha", "value": 80},
      {"measurement": "Plant response rating, Field violet", "setting": "[3]; Rate 62 g/ha", "value": 100},
      {"measurement": "Plant response rating, Field violet", "setting": "[3]; Rate 125 g/ha", "value": 100},
      {"measurement": "Plant response rating, I. Ryegrass", "setting": "[4]", "value": 0},
      {"measurement": "Plant response rating, Downy brome", "setting": "[5]; Rate 125 g/ha", "value": 100}
    ]},
    {"smiles": "Cc1cnc(-n2cnc(C(F)(F)F)c2)nc1Cc1cccc(C(F)(F)F)c1", "note": "[Compound 44]", "values": [
      {"measurement": "Plant response rating, Bermudagrass", "setting": "[6]; Rate 125 g/ha", "value": 0},
      {"measurement": "Plant response rating, Bermudagrass", "setting": "[6]; Rate 250 g/ha", "value": 0},
      {"measurement": "Plant response rating, Itchgrass", "setting": "[7]; Rate 32 g/ha", "value": 0},
      {"measurement": "Plant response rating, Itchgrass", "setting": "[7]; Rate 64 g/ha", "value": 0},
      {"measurement": "Plant response rating, Johnsongrass", "setting": "[8]; Rate 64 g/ha", "value": 0},
      {"measurement": "Plant response rating, Large crabgrass", "setting": "[9]", "value": 0}
    ]},
    {"smiles": "CCc1cnc(-n2ccc(C(F)(F)F)n2)nc1Cc1cccc(C(F)(F)F)c1", "note": "[Compound 46]", "values": [
      {"measurement": "Plant response rating, Itchgrass", "setting": "[7]; Rate 32 g/ha", "value": 0},
      {"measurement": "Plant response rating, Itchgrass", "setting": "[7]; Rate 64 g/ha", "value": 0},
      {"measurement": "Plant response rating, Johnsongrass", "setting": "[8]; Rate 32 g/ha", "value": 0},
      {"measurement": "Plant response rating, Johnsongrass", "setting": "[8]; Rate 64 g/ha", "value": 0},
      {"measurement": "Plant response rating, Johnsongrass", "setting": "[8]; Rate 125 g/ha", "value": 0},
      {"measurement": "Plant response rating, Johnsongrass", "setting": "[8]; Rate 250 g/ha", "value": 0},
      {"measurement": "Plant response rating, Surinam grass", "setting": "[10]; Rate 32 g/ha", "value": 0},
      {"measurement": "Plant response rating, Surinam grass", "setting": "[10]; Rate 64 g/ha", "value": 0}
    ]},
    {"smiles": "Cc1cnc(-n2ccc(C(F)(F)F)n2)nc1Cn1ccc(C(F)(F)F)n1", "note": "[Compound 52]", "values": [
      {"measurement": "Plant response rating, Wild buckwheat", "setting": "[11]", "value": 100}
    ]},
    {"smiles": "Cc1cnc(-n2cnc(C(F)(F)F)n2)nc1C(=O)c1cccc(C(F)(F)F)c1", "note": "[Compound 67]", "values": [
      {"measurement": "Plant response rating, Spanishneedles", "setting": "[12]; Rate 32 g/ha", "value": 0},
      {"measurement": "Plant response rating, Spanishneedles", "setting": "[12]; Rate 64 g/ha", "value": 0}
    ]},
    {"smiles": "Cc1cnc(-c2ccc(C(F)(F)F)cc2)nc1Cc1cccc(C(F)(F)F)c1", "note": "[Example 1, 5-methyl-2-[4-(trifluoromethyl)phenyl]-4-[[3-(trifluoromethyl)phenyl]methyl]pyrimidine]", "values": [
      {"measurement": "Plant response rating, Russian thistle", "setting": "[2]; Rate 16 g/ha", "value": 40},
      {"measurement": "Plant response rating, Russian thistle", "setting": "[2]; Rate 62 g/ha", "value": 60},
      {"measurement": "Plant response rating, Russian thistle", "setting": "[2]; Rate 125 g/ha", "value": 50},
      {"measurement": "Plant response rating, Field violet", "setting": "[3]; Rate 16 g/ha", "value": 20},
      {"measurement": "Plant response rating, Field violet", "setting": "[3]; Rate 31 g/ha", "value": 100},
      {"measurement": "Plant response rating, Field violet", "setting": "[3]; Rate 62 g/ha", "value": 100},
      {"measurement": "Plant response rating, Field violet", "setting": "[3]; Rate 125 g/ha", "value": 80},
      {"measurement": "Plant response rating, Kochia", "setting": "kochia (Kochia scoparia); Rate 32 g/ha", "value": 95},
      {"measurement": "Plant response rating, Kochia", "setting": "kochia (Kochia scoparia); Rate 64 g/ha", "value": 100},
      {"measurement": "Plant response rating, Kochia", "setting": "kochia (Kochia scoparia); Rate 125 g/ha", "value": 100},
      {"measurement": "Plant response rating, Downy brome", "setting": "[5]; Rate 250 g/ha", "value": 100},
      {"measurement": "Plant response rating, I. Ryegrass", "setting": "[13]; Rate 125 g/ha", "value": 100},
      {"measurement": "Plant response rating, I. Ryegrass", "setting": "[13]; Rate 250 g/ha", "value": 100}
    ]},
    {"smiles": "Cc1cnc(-n2ccc(C(F)(F)F)n2)nc1Cc1cccc(C(F)(F)F)c1", "note": "[Example 2, 5-methyl-4-[[3-(trifluoromethyl)phenyl]methyl]-2-[3-(trifluoromethyl)-1H-pyrazol-1-yl]pyrimidine]", "values": [
      {"measurement": "Plant response rating, Sugarcane", "setting": "[1]; POSTEMERGENCE, Rate 32 g/ha", "value": 20},
      {"measurement": "Plant response rating, Sugarcane", "setting": "[1]; POSTEMERGENCE, Rate 64 g/ha", "value": 20},
      {"measurement": "Plant response rating, Sugarcane", "setting": "[1]; POSTEMERGENCE, Rate 125 g/ha", "value": 20},
      {"measurement": "Plant response rating, Sugarcane", "setting": "[1]; POSTEMERGENCE, Rate 250 g/ha", "value": 25},
      {"measurement": "Plant response rating, Sugarcane", "setting": "[1]; POSTEMERGENCE, Rate 500 g/ha", "value": 25},
      {"measurement": "Plant response rating, Sugarcane", "setting": "[1]; PREEMERGENCE, Rate 64 g/ha", "value": 0},
      {"measurement": "Plant response rating, Itchgrass", "setting": "[14]; Rate 500 g/ha", "value": 100}
    ]},
    {"smiles": "Cc1cnc(-c2ccc(C(F)(F)F)cc2)nc1Cn1ccc(C(F)(F)F)n1", "note": "[compound 9]", "values": [
      {"measurement": "Plant response rating, Spanishneedles", "setting": "[12]; Rate 32 g/ha", "value": 0},
      {"measurement": "Plant response rating, Surinam grass", "setting": "[10]; Rate 32 g/ha", "value": 0},
      {"measurement": "Plant response rating, Itchgrass", "setting": "[14]; Rate 32 g/ha", "value": 100},
      {"measurement": "Plant response rating, Itchgrass", "setting": "[14]; Rate 125 g/ha", "value": 100},
      {"measurement": "Plant response rating, Itchgrass", "setting": "[14]; Rate 250 g/ha", "value": 100}
    ]}
  ]
}
